What was measured:
[1] = molecular target: T1, JMJD2C (Homo sapiens, UniProt Q9H3R0); assay: In vitro enzyme inhibition assay for JMJD2C activity (TR-FRET); type: biochemical
T1 construct: purchased BPS Bioscience 50105; host or cells: baculovirus expression system (insect cells)
T1 sequence (Q9H3R0 2-372): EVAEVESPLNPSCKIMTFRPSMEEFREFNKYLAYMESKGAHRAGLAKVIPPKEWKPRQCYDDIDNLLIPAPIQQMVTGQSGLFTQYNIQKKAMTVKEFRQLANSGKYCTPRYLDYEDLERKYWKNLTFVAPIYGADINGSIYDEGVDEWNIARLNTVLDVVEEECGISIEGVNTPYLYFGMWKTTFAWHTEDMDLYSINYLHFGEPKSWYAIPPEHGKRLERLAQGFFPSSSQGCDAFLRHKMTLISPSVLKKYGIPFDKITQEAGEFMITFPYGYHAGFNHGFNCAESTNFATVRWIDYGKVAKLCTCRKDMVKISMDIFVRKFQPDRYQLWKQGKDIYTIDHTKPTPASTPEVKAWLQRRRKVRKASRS
Protocol: This assay determines the ability of a test compound to inhibit JMJD2C demethylase activity. Baculovirus expressed JMJD2C (GenBank Accession #BC143571, AA 2-372) was purchased from BPS Bioscience (Cat#50105).
The ability of test compounds to inhibit the activity of JMJD2C was determined in 384-well plate format under the following reaction conditions: 0.3 nM JMJD2C, 300 nM H3K9me3-biotin labeled peptide (Anaspec cat #64360), 2 μM alpha-ketoglutaric acid in assay buffer of 50 mM HEPES, pH7.3, 0.005% Brij35, 0.5 mM TCEP, 0.2 mg/ml BSA, 50 μM sodium L-ascorbate, and 2 μM ammonium iron(II) sulfate. Reaction product was determined quantitatively by TR-FRET after the addition of detection reagent Phycolink Streptavidin-allophycocyanin (Prozyme) and Europium-anti-di-methylated histone H3 lysine 9 (H3K9me2) antibody (PerkinElmer) in the presence of 5 mM EDTA in LANCE detection buffer (PerkinElmer) at a final concentration of 50 nM and 1 nM, respectively.
The assay reaction was initiated by the following: 2 μl of the mixture of 900 nM H3K9me3-biotin labeled peptide and 6 μM alpha-ketoglutaric acid with 2 μl of 11-point serial diluted inhibitor in 3% DMSO were added to each well of the plate, followed by the addition of 2 μl of 0.9 nM JMJD2C to initiate the reaction. The reaction mixture was incubated at room temperature for 30 minutes, and terminated by the addition of 6 μl of 5 mM EDTA in LANCE detection buffer containing 100 nM Phycolink Streptavidin-allophycocyanin and 2 nM Europium-anti-H3K9me2 antibody. Plates were read by EnVisionMultilabel Reader in TR-FRET mode (excitation at 320 nm, emission at 615 nm and 665 nm) after 1 hour incubation at room temperature. A ratio was calculated (665/615) for each well and fitted to determine inhibition constant (IC50).

[2] = molecular target: T2, JMJD3 (Homo sapiens, UniProt O15054); assay: In vitro enzyme inhibition assay for JMJD3 activity (TR-FRET); type: biochemical; details: enzymatic assay conditions described herein
T2 construct: purchased BPS Bioscience 50115; host or cells: baculovirus expression system (insect cells)
Protocol: This assay determines the ability of a test compound to inhibit JMJD3 demethylase activity. Baculovirus expressed JMJD3 (GenBank Accession #NM-001080424, AA1043-end) was purchased from BPS Bioscience (Cat#50115).
The enzymatic assay of JMJD3 activity is based upon Time Resolved-Fluorescence Resonance Energy Transfer (TR-FRET) detection. […] Reaction product was determined quantitatively by TR-FRET after the addition of detection reagent Phycolink Streptavidin-allophycocyanin (Prozyme) and Europium-anti-di-methylated histone H3 lysine 27 (H3K27me2) antibody (PerkinElmer) in the presence of 5 mM EDTA in LANCE detection buffer (PerkinElmer) at a final concentration of 50 nM and 1 nM, respectively.
The reaction mixture was incubated at room temperature for 30 minutes, and terminated by the addition of 6 μL of 5 mM EDTA in LANCE detection buffer containing 100 nM Phycolink Streptavidin-allophycocyanin and 2 nM Europium-anti-H3K27me2 antibody. Plates were read by EnVisionMultilabel Reader in TR-FRET mode (excitation at 320 nm, emission at 615 nm and 665 nm) after 1 hour incubation at room temperature. A ratio from the readout of 665/615 was calculated for each well and fitted to determine inhibition constant (IC50).

[3] = 0.3 nM JMJD2C, H3K9me3-biotin peptide, 2 μM alpha-ketoglutaric acid
[4] = enzymatic assay conditions described herein

T2 sequence (O15054 1043-1682 isoform O15054-1): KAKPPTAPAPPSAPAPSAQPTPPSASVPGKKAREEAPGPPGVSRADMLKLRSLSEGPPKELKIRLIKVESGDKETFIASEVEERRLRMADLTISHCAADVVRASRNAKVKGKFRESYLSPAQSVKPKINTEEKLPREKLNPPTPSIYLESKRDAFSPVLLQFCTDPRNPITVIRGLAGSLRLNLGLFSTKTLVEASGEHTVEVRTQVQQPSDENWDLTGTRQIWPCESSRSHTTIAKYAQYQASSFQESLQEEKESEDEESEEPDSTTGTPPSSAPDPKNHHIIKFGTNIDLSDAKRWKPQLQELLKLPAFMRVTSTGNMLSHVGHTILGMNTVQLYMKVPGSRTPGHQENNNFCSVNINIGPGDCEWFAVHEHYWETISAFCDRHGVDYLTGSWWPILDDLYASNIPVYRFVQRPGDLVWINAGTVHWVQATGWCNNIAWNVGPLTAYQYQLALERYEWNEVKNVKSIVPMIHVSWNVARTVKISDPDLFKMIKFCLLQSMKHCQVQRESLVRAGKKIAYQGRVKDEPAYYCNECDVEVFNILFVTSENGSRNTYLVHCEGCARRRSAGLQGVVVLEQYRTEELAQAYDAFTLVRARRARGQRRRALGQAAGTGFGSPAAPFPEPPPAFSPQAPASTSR

Row | SMILES | IC50 [1, 3] [nM] | IC50 [1, 4] [nM] | IC50 [2] [nM]
1 | C[C@@H](O)c1ccc(N(C)c2ccc3c(c2)CCC[C@H]3CNc2cnccc2C(=O)O)cc1 (single isomer, unassigned) [Example 168] | 100 to 1000 | – | –
2 | C[C@H](O)c1ccc(N(C)c2ccc3c(c2)CCC[C@H]3CNc2cnccc2C(=O)O)cc1 (single isomer, unassigned) [Example 169] | 100 to 1000 | – | –
3 | O=C(O)c1ccncc1NC[C@@H]1CCOc2cc(C3CCCCC3)ccc21 [Example 35, 3-({[(4R)-7-cyclohexyl-3,4-dihydro-2H-1-benzopyran-4-yl]methyl}amino)pyridine-4-carboxylic Acid] | 100 to 1000 | – | –
4 | O=C(O)c1ccncc1NC[C@H]1CCOc2cc(-c3ccccc3)ccc21 [Example 83 of U.S. Pat. No. 8,952,151, 3-({[(4S)-7-phenyl-3,4-dihydro-2H-1-benzopyran-4-yl]methyl}amino)pyridine-4-carboxylic acid] | – | 950 | 19
5 | O=C(O)c1ccncc1NC[C@@H]1CCOc2cc(-c3ccccc3)ccc21 [Example 84 of U.S. Pat. No. 8,952,151, 3-({[(4R)-7-phenyl-3,4-dihydro-2H-1-benzopyran-4-yl]methyl}amino)pyridine-4-carboxylic acid] | – | 150 | 2150

— patent US10385047B2, “Histone demethylase inhibitors” (CELGENE QUANTICEL RESEARCH, INC., priority 2014, dated 2019)
